Data published in US5190873A, “Hybrid tryptophan aporepressor containing ligand binding sites” (California Institute of Biological Research, priority 1991, dated 1993).
Where no end group is shown, it is not given here.

Test system: U251MG human glioma cell attachment to TrpR-TN5 (E. coli Trp aporepressor hybrid with SRRGDMS at D/E transition)
Test: Cell attachment assay on TrpR-TN5-coated wells, peptide competition
Assay type: cell-based
Settings: peptide at 1 mg/ml; U251 cells
Experimental: Recombinant proteins were assessed for cell binding activity in a microtiter plate cell attachment assay. The assay is a simple and rapid means of assessing cell binding to the recombinant protein. In addition the specificity of the interaction is explored with specific inhibitor peptides, recombinant proteins and matrix proteins. Finally, the assay is used to screen a variety of cell lines to determine the range of cell types capable of interacting with the recombinant protein.
The assay used was a modification of one widely used in the field. See Bourdon et al., J. Cell Biol., 108:1149-1155 (1989). […] Nonspecific sites on the well were blocked with BSA. Human tumor cells, U251MG-human glioma or MG63-human sarcoma having the receptor which binds the SRRGDMS receptor binding site with or without inhibitor were added and allowed to adhere for 30 to 90 minutes at 37° C. Following the maintenance period, non-adherent cells were washed out and relative numbers of adherent cells were determined. The assay can detect binding interactions in the absence of extensive cell spreading.
In the cell attachment assay, the attached cells stained with Di-I a vital fluorescent dye which intercalates in cell membranes. The advantages of this form of cell tagging are that cells can be rapidly labeled, the label remains cell bound, it is not radioactive, and it is easily detected in a fluorescence plate reader.
Specificity of cell attachment was then determined in competition assays of cell attachment using SRRGDMS or GRGDSP peptides as competitive inhibitors of recombinant protein cell attachment. In the presence of 1 mg/ml SRRGDMS peptide, the specific attachment of U251MG cells to either fusion protein was inhibited as shown in FIG. 3.

| Substance | inhibition of cell attachment to TrpR-TN5 |
| --- | --- |
| GRGDSP (GRGDSP-NH2) | inhibited |
| MGSRSRD | did not inhibit |
| SRRGDMS (SRRGDMS-NH2) | inhibited |
